Structures are written as SMILES. Some results are limits rather than exact numbers.

What all share (format): cell-based
The subject of one assay is T84. Description: Cell growth inhibition assay (Cell Titer Glo), T84. The settings on record: Homo sapiens, 72 h; T84 colon; KRAS_G13D; PrK3CA_E542K; single agent, 3 days, mean ± std. The source says:
(§1) Human breast tumor line, MDA-MB-175-VII, human colon tumor lines, Colo-205, DLD-1, HCT-8, HT-29, LS-1034, NCI-H508, RKO, SW1417, SW1463, SW480, SW837 and T84, and human lung tumor lines, A427, A549, Calu 3, Calu 6, HCC827, NCI-H1155, NCI-H1355, NCI-H1792, NCI-H23, NCI-H727, SW1573 and SW900 were from ATCC. Human breast tumor line EFM-19 was from German Collection of Microorganisms and Cell Cultures. Human lung tumor line COR-L23 was from European Collection of Cell Cultures (UK). Human colon tumor line KM12 and human lung tumor line Hop62 were from National Cancer Institute. MV522 was from University of California at San Diego. All lines were cultured in RPMI 1640 medium containing 10% fetal bovine serum (FBS).
(§2) All cells were cultured for a minimum of 72 hours prior to cell plating. […] ATP levels were determined by adding Cell Titer Glo® (Promega) according to the manufacturer's protocol. Briefly, Cell Titer Glo® was added each plate, incubated for 30 minutes then luminescent signal was read on the SpectraMax L plate reader with a 0.5 sec integration time.
(§3) Inhibition of cell growth was estimated after treatment with compound or combination of compounds for three days and comparing the signal to cells treated with vehicle (DMSO). Cell growth was calculated relative to vehicle (DMSO) treated control wells. […]
(Cellular ATP, detected with luciferase, serves as a proxy for viable cell number.)

For another assay, the system named is KM12. Description: Cell growth inhibition assay (Cell Titer Glo), KM12. As to conditions: Homo sapiens, 72 h; KM12 colon; KRAS/RAF WT; PTEN_K267*; single agent, 3 days, mean ± std.
Description: as §1, §2, §3

A further assay relates to LS-1034. Description: Cell growth inhibition assay (Cell Titer Glo), LS-1034. As to conditions: Homo sapiens, 72 h; LS-1034 colon; KRAS_A146T; PIK3CA/PTEN WT; single agent, 3 days, mean ± std.
Description: as §1, §2, §3

For another assay, the system named is SW480. Description: Cell growth inhibition assay (Cell Titer Glo), SW480. The settings on record: Homo sapiens, 72 h; SW480 colon; PIK3CA/PTEN WT; single agent, 3 days, mean ± std.
Description: as §1, §2, §3

The test system of a further assay is COR-L23. Nature of the assay: Cell growth inhibition assay (Cell Titer Glo), COR-L23. The settings on record: Homo sapiens, 72 h; COR-L23 lung; KRAS_G12V; PIK3CA/PTEN WT; single agent, 3 days, mean ± std.
Description: as §1, §2, §3

Another assay concerns NCI-H1355. Description: Cell growth inhibition assay (Cell Titer Glo), NCI-H1355. As to conditions: Homo sapiens, 72 h; NCI-H1355 lung; KRAS_G13C; PIK3CA/PTEN WT; single agent, 3 days, mean ± std.
Description: as §1, §2, §3

For the next assay, the system named is Calu6. Nature of the assay: Cell growth inhibition assay (Cell Titer Glo), Calu6. As to conditions: Homo sapiens, Calu-6, 72 h; Calu6 lung; KRAS_Q61K; PIK3CA/PTEN WT; single agent, 3 days, mean ± std.
Description: as §1, §2, §3

For a further assay, the system named is SW1573. Description: Cell growth inhibition assay (Cell Titer Glo), SW1573. As to conditions: Homo sapiens, 72 h; SW1573 lung; KRAS_G12C; PIK3CA_K111E; single agent, 3 days, mean ± std.
Description: as §1, §2, §3

Another assay has as its system HOP62. Nature of the assay: Cell growth inhibition assay (Cell Titer Glo), HOP62. As to conditions: Homo sapiens, HOP-62, 72 h; HOP62 lung; KRAS_G12C; PIK3CA/PTEN WT; single agent, 3 days, mean ± std.
Description: as §1, §2, §3

Another assay has as its system SW900. Nature of the assay: Cell growth inhibition assay (Cell Titer Glo), SW900. The settings on record: Homo sapiens, 72 h; SW900 lung; KRAS_G12V; PIK3CA/PTEN WT; single agent, 3 days, mean ± std.
Description: as §1, §2, §3

In a further assay the test system is CaLu3. Description: Cell growth inhibition assay (Cell Titer Glo), CaLu3. The settings on record: Homo sapiens, Calu-3, 72 h; CaLu3 lung; KRAS/RAF WT; PIK3CA/PTEN WT; HER2+; single agent, 3 days, mean ± std.
Description: as §1, §2, §3

For another assay, the system named is human lung tumor lines. Description: Cell growth inhibition assay, lung tumor lines. The settings on record: COR-L23, A549, NCI-H1355, NCI-H1792, NCI-H23, Calu 6 and MV522, range over the lines, read-out: IC50s, single agent.
Description: as §1, §2, §3

With `CC(=O)Nc1cccc(-n2c(=O)n(C3CC3)c(=O)c3c(Nc4ccc(I)cc4F)n(C)c(=O)c(C)c32)c1` [Compound A, N-{3-[3-cyclopropyl-5-(2-fluoro-4-iodo-phenylamino)-6,8-dimethyl-2,4,7-trioxo-3,4,6,7-tetrahydro-2H-pyrido[4,3-d]pyrimidin-1-yl]phenyl}acetamide], the IC50 came to 0.061 ± 0.031 µM with T84; 0.023 ± 0.021 µM in the assay on KM12; 0.005 µM with LS-1034; 0.037 ± 0.015 µM in the assay on SW480; 0.329 ± 0.237 µM in the assay on COR-L23; 0.052 ± 0.01 µM in the assay on NCI-H1355. Moreover, the IC50 with Calu6 is 0.004 ± 0.003 µM; with SW1573, > 1 µM; with HOP62 it was > 1 µM; with SW900 it was 0.127 µM; with CaLu3, 0.158 ± 0.019 µM; in the assay with human lung tumor lines, 0.002 to 0.329 µM.
In the case of `Cn1ncc(Cl)c1-c1cc(C(=O)N[C@H](CN)Cc2cccc(F)c2)sc1Cl` [Compound B, N-{(1S)-2-amino-1-[(3-fluorophenyl)methyl]ethyl}-5-chloro-4-(4-chloro-1-methyl-1H-pyrazol-5-yl)-2-thiophenecarboxamide], the IC50 in the assay on T84 was > 10 µM; in the assay on KM12, 2.25 ± 1.18 µM; in the assay on LS-1034 it was 4.34 ± 1.77 µM; in the assay on SW480 it was > 10 µM; in the assay on COR-L23, 5.37 ± 3.52 µM; in the assay with NCI-H1355, 6.69 ± 3.49 µM. The IC50 in the assay with Calu6 was 2.15 ± 0.89 µM; in the assay with SW1573, > 8 µM; in the assay with HOP62 it was > 10 µM; in the assay on SW900 it was > 10 µM; in the assay on CaLu3 it was > 8 µM; in the assay with human lung tumor lines, 2 to 7 µM.
